Where two headings read alike, the source gives them in different places.
Key:
MAP4K5 = target: T1, MAP4K5 (Homo sapiens, UniProt Q9Y4K4); test: KinomeScan; assay type: binding; conditions: read-out: % Control
T1 construct: purchased DiscoveRx (Fremont, CA)

[1] = target: T2, TYK2(JH2domain-pseudokinase) (Homo sapiens, UniProt P29597); test: KinomeScan; assay type: binding; conditions: read-out: % Control
T2 construct: TYK2(JH2domain-pseudokinase); purchased DiscoveRx

IKK-alpha = target: T3, IKK-alpha (Homo sapiens, UniProt O15111); test: KinomeScan; assay type: binding; conditions: read-out: % Control
T3 construct: purchased DiscoveRx (Fremont, CA)
T3 sequence (O15111 whole entry): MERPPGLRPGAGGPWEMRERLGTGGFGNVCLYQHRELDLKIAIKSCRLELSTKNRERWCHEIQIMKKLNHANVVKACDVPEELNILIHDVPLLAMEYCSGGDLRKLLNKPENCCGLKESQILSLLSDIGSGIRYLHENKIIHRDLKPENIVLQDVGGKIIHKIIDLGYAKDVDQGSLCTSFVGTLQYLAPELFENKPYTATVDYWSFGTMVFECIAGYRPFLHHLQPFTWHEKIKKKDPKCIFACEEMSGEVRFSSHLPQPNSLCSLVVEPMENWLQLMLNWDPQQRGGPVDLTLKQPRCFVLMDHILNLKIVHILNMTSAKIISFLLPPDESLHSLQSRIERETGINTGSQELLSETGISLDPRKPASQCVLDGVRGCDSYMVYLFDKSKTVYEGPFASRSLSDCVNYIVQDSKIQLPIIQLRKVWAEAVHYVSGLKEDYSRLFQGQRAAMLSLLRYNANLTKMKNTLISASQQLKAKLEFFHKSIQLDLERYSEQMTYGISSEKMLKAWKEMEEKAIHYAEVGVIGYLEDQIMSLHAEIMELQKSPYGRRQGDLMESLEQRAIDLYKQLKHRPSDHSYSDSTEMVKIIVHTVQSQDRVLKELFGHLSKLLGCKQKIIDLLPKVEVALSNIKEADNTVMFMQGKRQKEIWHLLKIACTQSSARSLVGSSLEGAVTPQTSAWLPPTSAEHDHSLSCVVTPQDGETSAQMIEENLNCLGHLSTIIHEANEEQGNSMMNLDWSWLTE

MLK3 = target: T4, MLK3 (Homo sapiens, UniProt Q16584); test: KinomeScan; assay type: binding; conditions: read-out: % Control
T4 construct: purchased DiscoveRx

CSK = CSK (Homo sapiens, UniProt P41240); test: KinomeScan; assay type: binding; conditions: read-out: % Control
Chain of CSK (P41240 whole entry): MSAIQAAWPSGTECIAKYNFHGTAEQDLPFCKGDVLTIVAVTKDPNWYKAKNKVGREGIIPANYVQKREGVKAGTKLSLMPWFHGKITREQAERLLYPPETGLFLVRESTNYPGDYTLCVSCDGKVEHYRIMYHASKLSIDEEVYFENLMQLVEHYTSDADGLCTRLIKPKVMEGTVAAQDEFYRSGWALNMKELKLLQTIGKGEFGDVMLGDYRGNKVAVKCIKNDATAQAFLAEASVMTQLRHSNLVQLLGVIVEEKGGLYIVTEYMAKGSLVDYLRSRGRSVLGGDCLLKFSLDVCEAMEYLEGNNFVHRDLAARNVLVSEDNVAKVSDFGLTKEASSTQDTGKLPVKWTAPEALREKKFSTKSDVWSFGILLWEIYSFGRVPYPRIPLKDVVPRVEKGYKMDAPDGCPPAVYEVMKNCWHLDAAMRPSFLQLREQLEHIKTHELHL

FGFR3 = target: T5, FGFR3 (Homo sapiens, UniProt P22607); test: KinomeScan; assay type: binding; conditions: read-out: % Control
T5 construct: purchased DiscoveRx (Fremont, CA)

SgK110 = target: T6, SgK110 (Homo sapiens, UniProt P0C264); test: KinomeScan; assay type: binding; conditions: read-out: % Control
T6 construct: purchased DiscoveRx (Fremont, CA)
T6 sequence (P0C264 whole entry): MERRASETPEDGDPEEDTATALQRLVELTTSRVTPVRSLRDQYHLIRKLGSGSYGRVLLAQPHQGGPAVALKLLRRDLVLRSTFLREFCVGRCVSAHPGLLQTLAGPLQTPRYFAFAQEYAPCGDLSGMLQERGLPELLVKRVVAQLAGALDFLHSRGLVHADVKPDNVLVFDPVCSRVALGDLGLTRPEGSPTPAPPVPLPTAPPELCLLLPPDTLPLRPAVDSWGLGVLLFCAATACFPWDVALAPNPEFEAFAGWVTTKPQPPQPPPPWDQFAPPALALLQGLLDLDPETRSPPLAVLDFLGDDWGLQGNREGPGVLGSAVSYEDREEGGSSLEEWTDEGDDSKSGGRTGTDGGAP

PIK3CA(C420R) = target: T7, PIK3CA(C420R) (Homo sapiens, UniProt P42336, C420R); test: KinomeScan; assay type: binding; conditions: read-out: % Control
T7 construct: purchased DiscoveRx (Fremont, CA)

FES = target: T8, FES (Homo sapiens, UniProt P07332); test: KinomeScan; assay type: binding; conditions: read-out: % Control
T8 construct: purchased DiscoveRx (Fremont, CA)
T8 sequence (P07332 whole entry): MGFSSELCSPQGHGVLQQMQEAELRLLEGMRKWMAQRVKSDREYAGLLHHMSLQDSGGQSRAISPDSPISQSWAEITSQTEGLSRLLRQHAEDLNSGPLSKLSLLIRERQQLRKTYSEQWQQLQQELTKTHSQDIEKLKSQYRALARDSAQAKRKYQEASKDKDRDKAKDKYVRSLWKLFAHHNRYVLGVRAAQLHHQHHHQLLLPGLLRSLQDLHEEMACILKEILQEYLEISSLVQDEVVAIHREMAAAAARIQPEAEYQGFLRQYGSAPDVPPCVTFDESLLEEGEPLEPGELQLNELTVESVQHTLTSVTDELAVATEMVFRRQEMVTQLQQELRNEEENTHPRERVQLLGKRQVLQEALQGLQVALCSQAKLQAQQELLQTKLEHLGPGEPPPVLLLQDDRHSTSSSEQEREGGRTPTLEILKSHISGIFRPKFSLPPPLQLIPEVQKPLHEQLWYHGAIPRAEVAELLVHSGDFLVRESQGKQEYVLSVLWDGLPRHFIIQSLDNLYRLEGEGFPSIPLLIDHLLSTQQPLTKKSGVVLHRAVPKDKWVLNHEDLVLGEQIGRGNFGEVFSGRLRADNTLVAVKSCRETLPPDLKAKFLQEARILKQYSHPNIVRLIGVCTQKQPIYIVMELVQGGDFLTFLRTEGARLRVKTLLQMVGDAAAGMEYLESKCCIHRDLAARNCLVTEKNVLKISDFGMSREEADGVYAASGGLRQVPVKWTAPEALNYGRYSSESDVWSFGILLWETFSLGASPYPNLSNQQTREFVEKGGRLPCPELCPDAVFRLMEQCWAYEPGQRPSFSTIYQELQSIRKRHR

PIPSK1C = target: T9, PIPSK1C (Homo sapiens, UniProt O60331); test: KinomeScan; assay type: binding; conditions: read-out: % Control
T9 construct: purchased DiscoveRx (Fremont, CA)

ACVRLI = target: T10, ACVRLI (Homo sapiens, UniProt P37023); test: KinomeScan; assay type: binding; conditions: read-out: % Control
T10 construct: purchased DiscoveRx
T10 sequence (P37023 202-492 limits assumed): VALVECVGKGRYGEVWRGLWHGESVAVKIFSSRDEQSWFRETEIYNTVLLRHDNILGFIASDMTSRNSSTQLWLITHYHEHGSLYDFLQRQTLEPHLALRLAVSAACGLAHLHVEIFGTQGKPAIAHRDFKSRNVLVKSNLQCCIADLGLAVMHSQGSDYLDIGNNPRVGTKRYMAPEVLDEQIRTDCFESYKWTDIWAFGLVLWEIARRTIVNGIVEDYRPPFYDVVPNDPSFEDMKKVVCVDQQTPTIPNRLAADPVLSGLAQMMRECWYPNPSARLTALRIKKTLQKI

EPHA3 = target: T11, EPHA3 (Homo sapiens, UniProt P29320); test: KinomeScan; assay type: binding; conditions: read-out: % Control
T11 construct: purchased DiscoveRx (Fremont, CA)
T11 sequence (P29320 21-983): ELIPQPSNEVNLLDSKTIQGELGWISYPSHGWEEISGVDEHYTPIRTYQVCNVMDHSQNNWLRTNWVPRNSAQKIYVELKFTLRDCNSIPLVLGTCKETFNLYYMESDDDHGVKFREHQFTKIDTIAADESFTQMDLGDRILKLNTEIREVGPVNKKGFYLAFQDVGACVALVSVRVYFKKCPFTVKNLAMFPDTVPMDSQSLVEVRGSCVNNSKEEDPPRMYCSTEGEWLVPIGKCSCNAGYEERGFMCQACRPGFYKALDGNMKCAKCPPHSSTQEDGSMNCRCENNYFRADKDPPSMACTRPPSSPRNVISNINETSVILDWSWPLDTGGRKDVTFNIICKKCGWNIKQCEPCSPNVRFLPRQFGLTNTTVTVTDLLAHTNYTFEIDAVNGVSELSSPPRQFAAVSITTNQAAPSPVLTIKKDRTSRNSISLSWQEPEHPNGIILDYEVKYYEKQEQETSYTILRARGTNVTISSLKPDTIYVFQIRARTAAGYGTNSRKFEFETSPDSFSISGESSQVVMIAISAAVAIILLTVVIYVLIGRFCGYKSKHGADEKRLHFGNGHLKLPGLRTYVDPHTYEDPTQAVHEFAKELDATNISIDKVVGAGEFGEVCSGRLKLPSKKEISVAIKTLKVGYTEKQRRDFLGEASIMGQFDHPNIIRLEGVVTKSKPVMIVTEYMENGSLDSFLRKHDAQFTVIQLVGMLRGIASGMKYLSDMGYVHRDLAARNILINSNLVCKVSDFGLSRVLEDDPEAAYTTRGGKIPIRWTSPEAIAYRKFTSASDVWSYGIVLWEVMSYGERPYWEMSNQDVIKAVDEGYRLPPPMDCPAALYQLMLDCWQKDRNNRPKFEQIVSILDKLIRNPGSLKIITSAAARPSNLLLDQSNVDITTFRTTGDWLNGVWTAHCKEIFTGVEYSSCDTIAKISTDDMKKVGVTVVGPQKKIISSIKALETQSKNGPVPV

CSNK2A1 = CSNK2A1 (Homo sapiens, UniProt P68400); test: KinomeScan; assay type: binding; conditions: read-out: % Control
Chain of CSNK2A1 (P68400 whole entry): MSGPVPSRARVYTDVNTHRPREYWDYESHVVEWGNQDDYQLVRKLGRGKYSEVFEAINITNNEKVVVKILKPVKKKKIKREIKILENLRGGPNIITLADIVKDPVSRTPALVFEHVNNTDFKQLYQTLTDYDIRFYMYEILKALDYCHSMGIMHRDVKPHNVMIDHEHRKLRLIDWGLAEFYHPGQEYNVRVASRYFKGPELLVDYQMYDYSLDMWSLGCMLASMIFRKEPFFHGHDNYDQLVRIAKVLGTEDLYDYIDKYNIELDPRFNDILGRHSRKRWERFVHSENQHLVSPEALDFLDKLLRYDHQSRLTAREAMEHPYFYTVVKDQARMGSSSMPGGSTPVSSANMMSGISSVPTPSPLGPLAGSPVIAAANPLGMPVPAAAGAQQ

STK33 = target: T12, STK33 (Homo sapiens, UniProt Q9BYT3); test: KinomeScan; assay type: binding; conditions: read-out: % Control
T12 construct: purchased DiscoveRx (Fremont, CA)
T12 sequence (Q9BYT3 whole entry): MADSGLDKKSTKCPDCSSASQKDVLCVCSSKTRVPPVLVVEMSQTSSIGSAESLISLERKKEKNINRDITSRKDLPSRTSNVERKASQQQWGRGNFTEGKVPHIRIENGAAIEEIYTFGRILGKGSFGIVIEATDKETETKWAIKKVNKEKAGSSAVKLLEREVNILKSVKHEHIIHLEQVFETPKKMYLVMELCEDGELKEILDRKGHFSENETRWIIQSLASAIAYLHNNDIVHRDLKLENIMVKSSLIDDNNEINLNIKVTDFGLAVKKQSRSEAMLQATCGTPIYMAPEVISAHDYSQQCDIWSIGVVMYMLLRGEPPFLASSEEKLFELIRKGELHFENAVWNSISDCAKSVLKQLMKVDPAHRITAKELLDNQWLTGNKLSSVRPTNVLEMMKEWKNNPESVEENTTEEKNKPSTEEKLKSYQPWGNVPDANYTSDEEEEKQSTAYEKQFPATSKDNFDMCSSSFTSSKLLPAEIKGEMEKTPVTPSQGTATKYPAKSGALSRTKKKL

TRKA = target: T13, TRKA (Homo sapiens, UniProt P04629); test: KinomeScan; assay type: binding; conditions: read-out: % Control
T13 construct: purchased DiscoveRx (Fremont, CA)

PC3 = test: Liperfluo lipid peroxidation; assay type: cell-based, human
Text: (§1) OGM2 kills prostate cancer cells by inducing ferroptosis (FIG. 100). […] OGM2 induces ferroptosis in DU145 cells (FIG. 100A) and PC3 cells (FIG. 100C) based on Liperfluo™ lipid peroxidation assay. Erastin, a cystine-glutamate antiporter system Xc^− inhibitor, is a positive control ferroptosis inducer.

DU145 = test: Liperfluo lipid peroxidation; assay type: cell-based, human
Text: as §1

PANC02 = test: Clonogenicity (crystal violet); assay type: cell-based; conditions: 7 days
Method: In a third study, PANC02 pancreatic cells were plated at 400 cells per well in a 6-well plate and on the next day were treated with increasing concentrations of OGM2 for 7 days. The plate was fixed with formalin and stained with crystal violet.

DU 145 = test: Cell Titer-Glo viability, Prostate adenocarcinoma; assay type: cell-based; conditions: for CC50: Homo sapiens, read-out: LC50 (the source's name)
Method: (§2) OGM2 kills wide variety of cancer cell types. Cell sensitivity can be classified in to Very Sensitive (LC50<2 μM), Sensitive (LC50=2 to 10 μM), Mildly Sensitive (LC50>10 μM), and Refractory (no killing at 10 μM). The listed established cell were incubated with OGM2 at 2 μM or 10 μM for 72 hours under standard cell culture conditions, and relative cell number was assessed using Cell Titer-Glo Luminescent Cell Viability Assay (Promega™) following the manufacturer's instructions. Luminescence was determined using a Cytation 5 reader and Gen5 software package (BioTek™).
(§3) Cancer cells, which are very sensitive to killing by OGM2 (LCs <2 μM), with reported mRNA expression of GPR68 and the related proton sensing receptor GPR4. LC50's (concentrations causing 50% lethality) were determined using CellTiter-Glo (Promega™, G7570). Cells were plated in 12-well plates (CELLTREAT Scientific Products, 229112) in 1 ml of DMEM with high glucose, GlutaMAX, HEPES, or RPMI 1640 with Penicillin-Streptomycin (ThermoFisher™, 10564029, 11875119 and 15140122) and 10% FBS. Cells were incubated overnight at 37° C. in 5% CO2. Then 1 mL of fresh media was added with DMSO, OGM, or positive control (Erastin; APExBIO Technology, LLC, B1524) and cells incubated for 3 days. On the third day, all media was removed, cells were rinsed with 1×PBS, PBS was removed, and 200 μL of 1× Passive Lysis Buffer (Promega™, E1941) was added to each well. […]. Subsequently, 20 μL of lysate was added to 100 μL CellTiter-Glo™ reagent on a LUMITRAC 200 plate (Greiner™ bio-one, 82050-726). Plates were briefly spun down and read on a GloMax-Multi Detection System (Promega™).
(§4) The cells listed in the tables above were incubated with OGM2 at 2 μM or 10 μM for 72 hours under standard cell culture conditions, and relative cell number was assessed using Cell Titer-Glo Luminescent Cell Viability Assay (Promega™) following the manufacturer's instructions. Luminescence was determined using a Cytation 5 reader and Gen5 software package (BioTek™). RNA expression of GPR68 and GPR4 in the corresponding cancer cell lines are listed, according to the publicly available The Human Protein Atlas version 22.0 and Ensembl version 103.38 (see proteinatlas.org). The consensus normalized expression value (“nTPM”=normalize transcript per million) was calculated as the maximum nTPM value for each gene in the two data sources.

MDA-MB-231 = test: Cell Titer-Glo viability, Breast adenocarcinoma; assay type: cell-based
Method: as §2, §3, §4

MDA-MB-436 = test: Cell Titer-Glo viability, Breast adenocarcinoma; assay type: cell-based
Method: as §2, §3, §4

MCF7 = test: Cell Titer-Glo viability, Breast adenocarcinoma; assay type: cell-based
Method: as §2, §3, §4

T2 sequence (P29597 589-875 limits assumed): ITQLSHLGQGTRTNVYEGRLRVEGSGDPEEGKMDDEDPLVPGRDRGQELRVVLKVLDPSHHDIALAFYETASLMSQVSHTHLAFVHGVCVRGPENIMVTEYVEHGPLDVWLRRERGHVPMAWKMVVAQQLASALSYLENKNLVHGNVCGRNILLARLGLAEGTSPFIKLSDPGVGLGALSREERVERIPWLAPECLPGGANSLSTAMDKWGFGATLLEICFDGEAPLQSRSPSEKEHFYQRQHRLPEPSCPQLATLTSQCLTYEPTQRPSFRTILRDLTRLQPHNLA

## CCc1ccc2c(c1)C1(NN=C(c3cccc4ccccc34)S1)C(=O)N2 (stereo not drawn) [OGM1, 5-ethyl-5′-naphthalen-1-ylspiro[1H-indole-3,2′-3H-1,3,4-thiadiazole]-2-one]
MAP4K5
  remaining binding at 10 µM: 100%
[1]
  remaining binding at 10 µM: 100%
IKK-alpha
  remaining binding at 10 µM: 83%
MLK3
  remaining binding at 10 µM: 100%
CSK
  remaining binding at 10 µM: 83%
FGFR3
  remaining binding at 10 µM: 100%
SgK110
  remaining binding at 10 µM: 100%
PIK3CA(C420R)
  remaining binding at 10 µM: 100%
FES
  remaining binding at 10 µM: 100%
PIPSK1C
  remaining binding at 10 µM: 97%
ACVRLI
  remaining binding at 10 µM: 100%
EPHA3
  remaining binding at 10 µM: 78%
CSNK2A1
  remaining binding at 10 µM: 96%
STK33
  remaining binding at 10 µM: 91%
TRKA
  remaining binding at 10 µM: 81%

## CCc1ccc2c(c1)C1(NN=C(c3ccccc3)S1)C(=O)N2 (stereo not drawn) [OGM2]
PC3
  lipid peroxidation: significantly increased lipid peroxidation
DU145
  lipid peroxidation: significantly increased lipid peroxidation
PANC02
  clonogenicity: reduced the clonogenicity of pancreatic cancer cells
DU 145; 72 hours
  % Survival 2 μM OGM: 44.2%
  % Survival 10 μM OGM: 22.2%
DU 145; DU 145 cells, 2 μM, 72 hours, Cell Titer-Glo
  % Survival 2 μM OGM: 44.2%
DU 145; DU 145 cells, 10 μM, 72 hours, Cell Titer-Glo
  % Survival 10 μM OGM: 22.2%
DU 145; DU-145, 72 hours
  CC50: < 2000 nM
DU 145; DU 145 cells, concentration causing 50% lethality
  CC50: < 2000 nM
MDA-MB-231
  Class: Sensitive (Sensitive (LC50=2 to 10 μM))
MDA-MB-231; 72 hours
  % Survival 2 μM OGM: 70.1%
  % Survival 10 μM OGM: 48.1%
MDA-MB-231; Homo sapiens, MDA-MB-231, 72 hours, read-out: LC50 (the source's name)
  CC50: 2000 to 10000 nM
MDA-MB-436
  Class: Sensitive (Sensitive (LC50=2 to 10 μM))
MDA-MB-436; 72 hours
  % Survival 2 μM OGM: 52.6%
  % Survival 10 μM OGM: 35.7%
MDA-MB-436; Homo sapiens, MDA-MB-436, 72 hours, read-out: LC50 (the source's name)
  CC50: 2000 to 10000 nM
MCF7
  Class: Sensitive (Sensitive (LC50=2 to 10 μM))
MCF7; 72 hours
  % Survival 2 μM OGM: 50.6%
  % Survival 10 μM OGM: 25.2%
MCF7; Homo sapiens, MCF7, 72 hours, read-out: LC50 (the source's name)
  CC50: 2000 to 10000 nM

From patent US20240327364A1, “THERAPEUTIC TARGETING OF GPR68 TO INDUCE FERROPTOSIS” (University Of Maryland, Baltimore, priority 2023, published 2024)
